These results are taken from paper PMC5863483, “Low HLA binding of diabetes-associated CD8+ T-cell epitopes is increased by post translational modifications” (BMC Immunology, 2018).

pIC50: −log10 of the molar value. Read-outs that look alike come from different tables or passages of the source. *1 amine or outer side, *2 acyl side, *3 side chain or, on linkers, in order; H or OH if unused. Where a SMILES comes first, the peptide text is derived from it. Where no end group is shown, it is not given here. [ ]: non-standard residue; d: D form. γGlu = O=C(O)[C@H](CCC(=O)[*:2])N[*:1]; βAsp = O=C(O)[C@H](CC(=O)[*:2])N[*:1]; Cya = N[C@@H](CS(=O)(=O)O)C(=O)O; Cit = NC(=O)NCCC[C@H](N)C(=O)O Where only a bound is given, the exact number is not on record here.

The target in the assay is HLA-A*02:01 (Homo sapiens, UniProt P04439, D140Y/D185E/D98H/E176V/E277Q/G131W/G231S/I119V/I121R/I166T/I218V/L300P/L318F/N151K/N90K/P208A/P217A/Q86G/Q94H/R138H/R169H/T345S). Put plainly: HLA-peptide competition binding assay, A*02:01.
[1] abbreviates: read-out: A*02:01 binding (IC50 nM) WT.
The mark [2] stands for this setting: read-out: IC50 nM, target assay A*02:01.
Where [3] appears, read: unmodified (WT) insulin peptide, competition binding assay, a dash indicates IC50 >40,000 nM, read-out: A*02:01 binding (IC50 nM) WT.
[4] abbreviates: post-translationally modified insulin peptide, competition binding assay, a dash indicates IC50 >40,000 nM, read-out: A*02:01 binding (IC50 nM) Modified.
The mark [5] stands for this setting: post-translationally modified insulin-derived peptide, radiolabeled ligand competition, purified MHC, two-day incubation, three or more independent experiments, read-out: A*02:01 binding, Modified.
Setting [6] is: read-out: A*02:01 binding (IC50 nM) Modified.

By IC50 is commonly meant the concentration that gives 50% inhibition.

As for GSLQKRGIV, the IC50 under setting [1] came out at 32700 nM.
On to `CC[C@H](C)[C@H](NC(=O)[C@H](CO)NC(=O)[C@@H](NC(=O)[C@H](CS)NC(=O)[C@H](CS)NC(=O)[C@H](CCC(N)=O)NC(=O)[C@H](CCC(=O)O)NC(=O)[C@@H](NC(=O)[C@@H](NC(=O)CN)[C@@H](C)CC)C(C)C)[C@@H](C)O)C(=O)O` [reference compound] (H-GIVEQCCTSI-OH), for which the IC50 under setting [2] was determined as 7450 nM.
As for EALYLVCGE, the IC50 under setting [1] is 12000 nM.
For SLTAISTTL [reference compound], the IC50 under setting [2] is 242 nM.
As for `C[C@@H](O)[C@H](NC(=O)[C@H](CCCCN)NC(=O)[C@@H]1CCCN1C(=O)[C@@H](NC(=O)[C@H](Cc1ccc(O)cc1)NC(=O)[C@H](Cc1ccccc1)NC(=O)[C@H](Cc1ccccc1)NC(=O)CN)[C@@H](C)O)C(=O)N[C@@H](CCCNC(=N)N)C(=O)N[C@@H](CCCNC(=N)N)C(=O)O`, under setting [3], the IC50 was above 40000 nM.
For VCGERGYFY, the IC50 under setting [4] is above 40000 nM.
Regarding GSHLVEALYL, the IC50 under setting [1] stood at 1770 nM.
Turning to REAEDLQVG, the IC50 under setting [3] was above 40000 nM.
For the compound NQHLCGSHL, the IC50 under setting [3] was above 40000 nM.
Take `CC(C)C[C@H](NC(=O)[C@H](Cc1c[nH]cn1)NC(=O)[C@@H](N)CCC(N)=O)C(=O)N[C@@H](CS(=O)(=O)O)C(=O)NCC(=O)N[C@@H](CO)C(=O)N[C@@H](Cc1c[nH]cn1)C(=O)N[C@@H](CC(C)C)C(=O)N[C@H](C(=O)N[C@@H](CCC(=O)O)C(=O)O)C(C)C` [QHLBGSHLVE] (H-QHL[Cya]GSHLVE-OH; N-terminus and C-terminus assumed): the IC50 under setting [4] is above 40000 nM.
Turning to `CSCC[C@H](NC(=O)[C@H](Cc1c[nH]c2ccccc12)NC(=O)[C@H](CC(C)C)NC(=O)[C@H](C)N)C(=O)N[C@@H](CCCNC(N)=O)C(=O)N[C@@H](CC(C)C)C(=O)N[C@@H](CC(C)C)C(=O)N1CCC[C@H]1C(=O)N[C@@H](CC(C)C)C(=O)N[C@@H](CC(C)C)C(=O)O` (H-ALWM[Cit]LLPLL-OH), the pIC50 under setting [5] was 7.16.
For SHLVEALYL, the IC50 under setting [1] is 257 nM.
With `CSCC[C@H](NC(=O)[C@H](Cc1c[nH]c2ccccc12)NC(=O)[C@H](CC(C)C)NC(=O)[C@H](C)NC(=O)[C@@H](N)CCSC)C(=O)N[C@@H](CCCNC(N)=O)C(=O)N[C@@H](CC(C)C)C(=O)N[C@@H](CC(C)C)C(=O)N1CCC[C@H]1C(=O)O` (H-MALWM[Cit]LLP-OH), the pIC50 under setting [5] was 5.67.
With LIFDLGGGT [reference compound], the IC50 under setting [2] worked out at 5420 nM.
As for NLFLFLFAV [reference compound], under setting [2], the IC50 worked out at 1230 nM.
For VLVEGSTRI [reference compound], the IC50 under setting [2] is 17200 nM.
Take RLLCALTSL [reference compound]: under setting [2], the IC50 was found to be 91 nM.
Same read-out and setting: with STVASWLGPV [reference compound] the figure was 9230 nM.
On to VEALYLVCG, for which the IC50 under setting [1] amounted to 14300 nM.
Turning to `CC(C)C[C@H](NC(=O)[C@H](CC(=O)O)NC(=O)[C@H](CCC(=O)O)NC(=O)[C@H](C)NC(=O)[C@H](CCC(=O)O)NC(=O)[C@H](CCCNC(N)=O)NC(=O)[C@H](CCCNC(N)=O)NC(=O)[C@@H](N)[C@@H](C)O)C(=O)N[C@@H](CCC(N)=O)C(=O)O` (H-T[Cit][Cit]EAEDLQ-OH; N-terminus and C-terminus assumed), the IC50 under setting [4] was above 40000 nM.
On to SMCRFSPLTL [reference compound], for which, under setting [2], the IC50 worked out at 1150 nM.
For `CC[C@H](C)[C@H](NC(=O)CNC(=O)[C@H](CCCNC(N)=O)NC(=O)[C@H](CCCCN)NC(=O)[C@H](CCC(N)=O)NC(=O)[C@H](CC(C)C)NC(=O)[C@H](CO)NC(=O)CNC(=O)[C@@H](N)CCC(=O)O)C(=O)N[C@H](C(=O)O)C(C)C` (H-EGSLQK[Cit]GIV-OH; N-terminus and C-terminus assumed), under setting [4], the concentration for half-maximal inhibition (IC50) is above 40000 nM.
`C[C@@H](O)[C@H](NC(=O)[C@H](CCCCN)NC(=O)[C@@H]1CCCN1C(=O)[C@@H](NC(=O)[C@H](Cc1ccc(O)cc1)NC(=O)[C@H](Cc1ccccc1)NC(=O)[C@H](Cc1ccccc1)NC(=O)CN)[C@@H](C)O)C(=O)N[C@@H](CCCNC(=N)N)C(=O)O`: the IC50 under setting [1] amounted to 12200 nM.
On to `CC(C)C[C@H](N)C(=O)N[C@H](C(=O)N[C@@H](CS(=O)(=O)O)C(=O)NCC(=O)N[C@@H](CCC(=O)O)C(=O)N[C@@H](CCCNC(=N)N)C(=O)NCC(=O)N[C@@H](Cc1ccc(O)cc1)C(=O)N[C@@H](Cc1ccc(O)cc1)C(=O)N[C@@H](Cc1ccc(O)cc1)C(=O)O)C(C)C` [LVBGERGYYY] (H-LV[Cya]GERGYYY-OH; N-terminus and C-terminus assumed), for which the IC50 under setting [4] was above 40000 nM.
As to HLASEKVYAI [reference compound], the IC50 under setting [2] stood at 4060 nM.
In the case of LEGSLQKRG, under setting [3], the IC50 was above 40000 nM.
With VDEHLCGSHL, the IC50 under setting [4] was above 40000 nM.
Same read-out and setting: with `CC(C)C[C@H](NC(=O)[C@H](Cc1c[nH]cn1)NC(=O)CC[C@H](NC(=O)C[C@H](NC(=O)[C@@H](N)C(C)C)C(=O)O)C(=O)O)C(=O)N[C@@H](CS)C(=O)NCC(=O)N[C@@H](CO)C(=O)N[C@@H](Cc1c[nH]cn1)C(=O)O` [VOZHLCGSH] (H-V[βAsp][γGlu]HLCGSH-OH; N-terminus and C-terminus assumed) the figure was above 40000 nM.
As to DEHLCGSHLV, the IC50 under setting [4] is above 40000 nM.
Regarding VNQHLCGSH, the IC50 under setting [3] was above 40000 nM.
LLSILCIWV [reference compound] showed a pIC50 of 6.13.
On to `CC(C)C[C@H](NC(=O)[C@H](Cc1c[nH]cn1)NC(=O)[C@@H](N)CCC(N)=O)C(=O)N[C@@H](CS(=O)(=O)O)C(=O)NCC(=O)N[C@@H](CO)C(=O)N[C@@H](Cc1c[nH]cn1)C(=O)N[C@@H](CC(C)C)C(=O)N[C@H](C(=O)O)C(C)C` [QHLBGSHLV] (H-QHL[Cya]GSHLV-OH), for which the IC50 under setting [6] amounted to 37900 nM.
For the compound `CC(C)[C@H](N)C(=O)N[C@@H](CS(=O)(=O)O)C(=O)NCC(=O)N[C@@H](CCC(=O)O)C(=O)N[C@@H](CCCNC(=N)N)C(=O)NCC(=O)N[C@@H](Cc1ccc(O)cc1)C(=O)N[C@@H](Cc1ccc(O)cc1)C(=O)N[C@@H](Cc1ccc(O)cc1)C(=O)O` [VBGERGYYY] (H-V[Cya]GERGYYY-OH; N-terminus and C-terminus assumed), the IC50 under setting [4] is above 40000 nM.
Regarding `CC[C@H](C)[C@H](NC(=O)CNC(=O)[C@H](CCCNC(N)=O)NC(=O)[C@H](CCCCN)NC(=O)[C@H](CCC(N)=O)NC(=O)[C@H](CC(C)C)NC(=O)[C@@H](N)CO)C(=O)N[C@H](C(=O)N[C@@H](CCC(=O)O)C(=O)O)C(C)C` [SLQKUGIVE] (H-SLQK[Cit]GIVE-OH; N-terminus and C-terminus assumed), the IC50 under setting [4] was above 40000 nM.
For `CSCC[C@H](NC(=O)[C@H](Cc1c[nH]c2ccccc12)NC(=O)[C@@H](N)CC(C)C)C(=O)N[C@@H](CCCNC(N)=O)C(=O)N[C@@H](CC(C)C)C(=O)N[C@@H](CC(C)C)C(=O)N1CCC[C@H]1C(=O)N[C@@H](CC(C)C)C(=O)N[C@@H](CC(C)C)C(=O)O` (H-LWM[Cit]LLPLL-OH), the IC50 under setting [6] was determined as 148 nM.
For the compound ALEGSLQKRG, the IC50 under setting [3] was above 40000 nM.
In the case of `C[C@@H](O)[C@H](NC(=O)[C@H](CCCCN)NC(=O)[C@@H]1CCCN1C(=O)[C@@H](NC(=O)[C@H](Cc1ccc(O)cc1)NC(=O)[C@H](Cc1ccccc1)NC(=O)[C@@H](N)Cc1ccccc1)[C@@H](C)O)C(=O)N[C@@H](CCCNC(N)=O)C(=O)N[C@@H](CCCNC(N)=O)C(=O)N[C@@H](CCC(=O)O)C(=O)O` (H-FFYTPKT[Cit][Cit]E-OH), the concentration for half-maximal inhibition (IC50) under setting [6] turned out to be 28300 nM.
